This passage reports IC50 results from US6340679B1, “Guanidine derivatives as inhibitors of cell adhesion” (Aventis Pharma Deutschland GmbH, priority 1999, dated 2002).

Assay [1] deals with T1, human vitronectin receptor αvβ3 (Homo sapiens, UniProt P05106+P06756).
T1 construct: Human vitronectin receptor was obtained from the human placenta; from tissue; host or cells: human placenta
The assay can be described thus: Inhibition of the binding of kistrin to human vitronectin receptor (αvβ3 ELISA Test, K/VnR). The source says: The inhibition of the binding of kistrin to human vitronectin receptor (VnR) described below is a test method by which, for example, the antagonistic action of the compounds according to the invention on the vitronectin receptor αvβ3 can be determined (αvβ3 ELISA Test; the test method is abbreviated as “K/VnR” in the listing of the test results).
Kistrin was purified according to the methods of Dennis et al., as described in Proc. Natl. Acad. Sci. USA 87 (1989) 2471-2475 and PROTEINS: Structure, Function and Genetics 15 (1993) 312-321.
Human vitronectin receptor was obtained from the human placenta according to the method of Pytela et al., Methods Enzymol. 144 (1987) 475. Human vitronectin receptor αvβ3 can also be obtained from some cell lines (for example from 293 cells, a human embryonic kidney cell line) which are co-transfected with DNA sequences for both subunits αv and β3 of the vitronectin receptor. The subunits are extracted with octyl glycoside and then chromatographed through concanavalin A, heparin-Sepharose and S-300.
Murine monoclonal antibodies which are specific for the β3 subunits of the vitronectin receptor were prepared according to the method of Newman et al., Blood (1985) 227-232, or by a similar process. The rabbit Fab 2 anti-mouse Fc conjugate to horseradish peroxidase (anti-mouse Fc HRP) was obtained from Pel Freeze (Catalog No. 715 305-1).
The ability of substances to inhibit the binding of kistrin to the vitronectin receptor can be determined using an ELISA test. For this purpose, Nunc 96-well microtiter plates were coated with a solution of kistrin (0.002 mg/ml) according to the method of Dennis et al., as described in PROTEINS: Structure, Function and Genetics 15 (1993) 312-321. The plates were then washed twice with PBS/0.05% Tween-20 and blocked by incubating (60 min) with bovine serum albumin (BSA, 0.5%, RIA grade or better) in buffer solution (Tris-HCl (50 mM), NaCl (100 mM), MgCl2 (1 mM), CaCl2 (1 mM), MnCl2 (1 mM), pH 7). Solutions of known inhibitors and of the test substances were prepared in concentrations from 2×10^−12 to 2×10^−6 mol/l in assay buffer (BSA (0.5%, RIA grade or better); Tris-HCl (50 mM), NaCl (100 mM), MgCl2 (1 mM), CaCl2 (1 mM), MnCl2 (1 mM), pH 7). The blocked plates were emptied, and in each case 0.025 ml of this solution which contained a defined concentration (2×10^−12 to 2×10^−6 mol/l ) either of a known inhibitor or of a test substance, were added to each well. 0.025 ml of a solution of the vitronectin receptor in assay buffer (0.03 mg/ml) was pipetted into each well of the plate and the plate was incubated at room temperature for 60-180 min on a shaker. In the meantime, a solution (6 ml/plate) of a murine monoclonal antibody specific for the β3 subunit of the vitronectin receptor was prepared in assay buffer (0.0015 mg/ml). A second rabbit antibody (0.001 ml of stock solution/6 ml of the murine monoclonal anti-β3 antibody solution) which was an anti-mouse Fc HRP antibody conjugate was added to this solution, and this mixture of murine anti-β3 antibody and rabbit anti-mouse Fc HRP antibody conjugate was incubated during the time of the receptor-inhibitor incubation. The test plates were washed four times with PBS solution which contained 0.05% Tween-20, and in each case 0.05 ml/well of the antibody mixture was pipetted into each well of the plate and incubated for 60-180 min. The plate was washed four times with PBS/0.05% Tween-20 and then developed with 0.05 ml/well of a PBS solution which contained 0.67 mg/ml of o-phenylenediamine and 0.012% of H2O2. Alternatively to this, o-phenylenediamine can be employed in a buffer (pH 5) which contains Na3PO4 and citric acid. The color development was stopped using 1 N H2SO4 (0.05 ml/well). The absorption for each well was measured at 492-405 nm and the data were evaluated by standard methods.
For orientation: An ELISA detects its analyte on a solid surface through an enzyme-linked reagent.

For the next assay, the target named is GP IIb/IIIa (Homo sapiens, UniProt P05106+P08514). The assay can be described thus: Fibrinogen-GP IIbIIIa Receptor ELISA Binding Assay (GP IIb/IIIa). The conditions noted are these: read-out: GP IIb/IIla IC50. As to the method:
The test for inhibition of GP IIb/IIIa (“Fibrinogen-GP IIbIIIa Receptor ELISA Binding Assay”) was carried out as described in U.S. Pat. No. 5,403,836 which is incorporated herein by reference (the test method is abbreviated as “GP IIb/IIa” in the listing of the test results).

Chain of GP IIb/IIIa (P08514 32-887 limits assumed): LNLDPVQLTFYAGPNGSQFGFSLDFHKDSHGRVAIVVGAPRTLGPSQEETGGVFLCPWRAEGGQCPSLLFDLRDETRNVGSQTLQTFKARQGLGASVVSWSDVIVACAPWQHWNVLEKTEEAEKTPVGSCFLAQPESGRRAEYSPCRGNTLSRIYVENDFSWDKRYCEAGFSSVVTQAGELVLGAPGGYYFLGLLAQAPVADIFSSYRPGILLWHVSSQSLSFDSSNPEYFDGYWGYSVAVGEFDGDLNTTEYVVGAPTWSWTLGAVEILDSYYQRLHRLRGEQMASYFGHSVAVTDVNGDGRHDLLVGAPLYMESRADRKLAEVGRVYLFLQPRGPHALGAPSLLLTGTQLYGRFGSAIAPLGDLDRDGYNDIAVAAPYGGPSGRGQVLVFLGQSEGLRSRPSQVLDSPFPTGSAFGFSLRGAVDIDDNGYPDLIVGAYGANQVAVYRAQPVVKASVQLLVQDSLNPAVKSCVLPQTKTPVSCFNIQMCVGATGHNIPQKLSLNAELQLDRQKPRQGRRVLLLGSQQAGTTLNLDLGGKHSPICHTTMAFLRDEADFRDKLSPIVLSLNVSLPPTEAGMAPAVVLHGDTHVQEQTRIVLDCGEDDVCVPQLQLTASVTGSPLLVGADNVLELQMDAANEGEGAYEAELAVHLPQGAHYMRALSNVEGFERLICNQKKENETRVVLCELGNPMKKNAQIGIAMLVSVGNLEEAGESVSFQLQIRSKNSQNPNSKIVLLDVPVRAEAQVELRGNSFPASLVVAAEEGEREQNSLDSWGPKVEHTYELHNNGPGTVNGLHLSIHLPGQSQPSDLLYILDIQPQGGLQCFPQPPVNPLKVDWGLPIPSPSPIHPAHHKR
Chain of GP IIb/IIIa (P08514 891-1039 partner limits assumed): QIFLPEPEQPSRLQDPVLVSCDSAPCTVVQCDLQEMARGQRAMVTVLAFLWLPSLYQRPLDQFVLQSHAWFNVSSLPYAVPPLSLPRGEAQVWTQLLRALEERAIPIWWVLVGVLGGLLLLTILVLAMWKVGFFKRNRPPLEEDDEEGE
Chain of GP IIb/IIIa (P05106 27-788): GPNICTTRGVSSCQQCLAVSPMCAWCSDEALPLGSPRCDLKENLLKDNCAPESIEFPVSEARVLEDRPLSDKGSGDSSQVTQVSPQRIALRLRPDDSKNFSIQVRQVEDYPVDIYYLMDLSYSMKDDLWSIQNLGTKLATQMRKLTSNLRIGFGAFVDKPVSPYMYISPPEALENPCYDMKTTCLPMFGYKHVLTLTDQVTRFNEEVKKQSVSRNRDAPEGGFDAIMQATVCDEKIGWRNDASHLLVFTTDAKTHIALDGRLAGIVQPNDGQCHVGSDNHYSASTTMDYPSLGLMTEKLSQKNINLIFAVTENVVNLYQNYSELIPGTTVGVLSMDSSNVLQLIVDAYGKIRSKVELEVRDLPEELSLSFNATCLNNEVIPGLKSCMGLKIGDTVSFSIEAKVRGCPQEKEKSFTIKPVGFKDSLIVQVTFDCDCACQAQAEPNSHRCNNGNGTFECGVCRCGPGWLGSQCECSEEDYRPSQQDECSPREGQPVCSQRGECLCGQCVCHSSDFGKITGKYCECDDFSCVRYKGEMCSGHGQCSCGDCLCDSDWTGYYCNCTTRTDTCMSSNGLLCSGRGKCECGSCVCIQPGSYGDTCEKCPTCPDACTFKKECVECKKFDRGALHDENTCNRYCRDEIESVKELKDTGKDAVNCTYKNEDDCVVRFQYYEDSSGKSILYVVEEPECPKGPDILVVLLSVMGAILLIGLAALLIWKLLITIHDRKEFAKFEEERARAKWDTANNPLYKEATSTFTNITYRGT
T1 sequence (P06756 31-889 limits assumed): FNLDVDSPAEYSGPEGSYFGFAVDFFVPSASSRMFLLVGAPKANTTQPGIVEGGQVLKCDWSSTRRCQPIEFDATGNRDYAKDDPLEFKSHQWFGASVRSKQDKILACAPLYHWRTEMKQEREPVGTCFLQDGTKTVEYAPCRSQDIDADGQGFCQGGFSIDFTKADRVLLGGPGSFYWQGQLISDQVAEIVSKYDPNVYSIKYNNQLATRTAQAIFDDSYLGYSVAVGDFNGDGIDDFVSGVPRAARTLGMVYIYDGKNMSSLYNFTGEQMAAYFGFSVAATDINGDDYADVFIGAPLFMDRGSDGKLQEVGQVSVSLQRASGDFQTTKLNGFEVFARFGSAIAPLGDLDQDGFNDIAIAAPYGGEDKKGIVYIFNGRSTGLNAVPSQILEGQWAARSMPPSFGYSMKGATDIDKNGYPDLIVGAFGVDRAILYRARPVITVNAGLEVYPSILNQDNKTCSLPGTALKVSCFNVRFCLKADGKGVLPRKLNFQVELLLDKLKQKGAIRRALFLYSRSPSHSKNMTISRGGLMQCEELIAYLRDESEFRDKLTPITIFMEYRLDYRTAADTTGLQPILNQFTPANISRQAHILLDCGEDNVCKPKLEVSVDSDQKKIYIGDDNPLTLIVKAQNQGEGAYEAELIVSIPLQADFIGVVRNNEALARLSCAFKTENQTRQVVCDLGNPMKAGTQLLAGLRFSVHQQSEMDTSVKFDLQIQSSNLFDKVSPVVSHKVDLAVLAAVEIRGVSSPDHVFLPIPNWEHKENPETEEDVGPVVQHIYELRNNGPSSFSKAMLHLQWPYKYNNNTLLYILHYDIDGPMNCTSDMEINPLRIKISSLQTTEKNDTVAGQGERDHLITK
T1 sequence (P06756 891-1048 partner limits assumed): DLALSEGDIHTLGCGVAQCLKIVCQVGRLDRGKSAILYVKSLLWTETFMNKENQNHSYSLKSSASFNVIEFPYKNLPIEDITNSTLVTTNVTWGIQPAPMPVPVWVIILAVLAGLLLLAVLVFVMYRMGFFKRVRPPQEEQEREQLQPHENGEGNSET
T1 sequence (P05106 27-788): as the sequence (P05106 27-788) above

As to `O=C(CCCOc1ccc(C[C@H](NS(=O)(=O)c2ccc(Br)cc2)C(=O)O)cc1)NC1=NCCCN1` [Example 7, (2S)-2-(4-Bromobenzenesulfonylamino)-3-{4-[3-(1,4,5,6-tetrahydropyrimidin-2-ylcarbamoyl)-propoxy]-phenyl}-propionic acid], the IC50 in assay [1] turned out to be 3.5 nM; on GP IIb/IIIa, 950 nM.
For `CCCCCCCCS(=O)(=O)N[C@@H](Cc1ccc(OCCCC(=O)NC2=NCCCN2)cc1)C(=O)O` [Example 10, (2S)-2-(Octane-1-sulfonylamino)-3-{4-[3-(1,4,5,6-tetrahydropyrimidin-2-ylcarbamoyl)-propoxy]-phenyl}-propionic acid] the same measures were 7.6 nM and 2400 nM.
For `O=C(CCCOc1ccc(C[C@H](NS(=O)(=O)c2ccc(Cl)cc2)C(=O)O)cc1)NC1=NCCCN1` [Example 3, (2S)-2-(4-Chlorobenzenesulfonylamino)-3-{4-[3-(1,4,5,6-tetrahydropyrimidin-2-ylcarbamoyl)-propoxy]-phenyl}-propionic acid] the same measures were 3 nM and 765 nM.
For `O=C(CCCOc1ccc(C[C@H](NS(=O)(=O)c2ccc3ccccc3c2)C(=O)O)cc1)NC1=NCCCN1` [Example 1, (2S)-2-(Naphthalene-2-sulfonylamino)-3-{4-[3-(1,4,5,6-tetrahydropyrimidin-2-ylcarbamoyl)-propoxy]-phenyl}-propionic acid] the same measures were 7.5 nM and 260 nM.
Take `O=C(CCCOc1ccc(C[C@H](NS(=O)(=O)c2cccc3ccccc23)C(=O)O)cc1)NC1=NCCCN1` [Example 2, (2S)-2-(Naphthalene-1-sulfonylamino)-3-{4-[3-(1,4,5,6-tetrahydropyrimidin-2-ylcarbamoyl)-propoxy]-phenyl}-propionic acid]: the IC50 in assay [1] is 2.7 nM; at GP IIb/IIIa, 525 nM.
With `O=C(CCCOc1ccc(C[C@H](NS(=O)(=O)c2cccs2)C(=O)O)cc1)NC1=NCCCN1` [Example 8, (2S)-3-{4-[3-(1,4,5,6-Tetrahydropyrimidin-2-ylcarbamoyl)-propoxy]-phenyl}-2-(thiophene-2-sulfonylamino)-propionic acid], the results for the IC50 (in assay [1]; at GP IIb/IIIa) were 2.5 nM and 330 nM, respectively.
Turning to `O=C(CCCOc1ccc(C[C@H](NS(=O)(=O)c2ccccc2)C(=O)O)cc1)NC1=NCCCN1` [Example 4, (2S)-2-Benzenesulfonylamino-3-{4-[3-(1,4,5,6-tetrahydropyrimidin-2-ylcarbamoyl)-propoxy]-phenyl}-propionic acid], the values for the IC50 (in assay [1]; on GP IIb/IIIa) were 2.8 nM and 410 nM, respectively.
For `O=C(CCCOc1ccc(C[C@H](NS(=O)(=O)c2ccc(C(F)(F)F)cc2)C(=O)O)cc1)NC1=NCCCN1` [Example 5, (2S)-3-{4-[3-(1,4,5,6-Tetrahydropyrimidin-2-ylcarbamoyl)-propoxy]-phenyl}-2-(4-trifluoromethylbenzenesulfonylamino)-propionic acid] the same measures were 3.5 nM and 3150 nM.
On to `Cc1ccc(S(=O)(=O)N[C@@H](Cc2ccc(OCCCC(=O)NC3=NCCCN3)cc2)C(=O)O)cc1` [Example 6, (2S)-3-{4-[3-(1,4,5,6-Tetrahydropyrimidin-2-ylcarbamoyl)-propoxy]-phenyl}-2-(toluene4-sulfonylamino)-propionic acid], for which the IC50 in assay [1] stood at 2.8 nM; on GP IIb/IIIa it was 720 nM.
For `CCCCS(=O)(=O)N[C@@H](Cc1ccc(OCCCC(=O)NC2=NCCCN2)cc1)C(=O)O` [Example 9, (2S)-2-(Butane-1-sulfonylamino)-3-{4-[3-(1,4,5,6-tetrahydropyrimidin-2-ylcarbamoyl)-propoxy]-phenyl}-propionic acid] the same measures were 5.3 nM and 2100 nM.
